Columns and labels:
CYP1A2 [1] = target: T1, CYP1A2 (Homo sapiens, UniProt P05177); experiment: Inhibition of CYP1A2 activity in vitro (probe phenacetin); format: in vitro ADME; details: compound 0-80 μM; probe phenacetin 0.02 mM
T1 sequence (P05177 2-516): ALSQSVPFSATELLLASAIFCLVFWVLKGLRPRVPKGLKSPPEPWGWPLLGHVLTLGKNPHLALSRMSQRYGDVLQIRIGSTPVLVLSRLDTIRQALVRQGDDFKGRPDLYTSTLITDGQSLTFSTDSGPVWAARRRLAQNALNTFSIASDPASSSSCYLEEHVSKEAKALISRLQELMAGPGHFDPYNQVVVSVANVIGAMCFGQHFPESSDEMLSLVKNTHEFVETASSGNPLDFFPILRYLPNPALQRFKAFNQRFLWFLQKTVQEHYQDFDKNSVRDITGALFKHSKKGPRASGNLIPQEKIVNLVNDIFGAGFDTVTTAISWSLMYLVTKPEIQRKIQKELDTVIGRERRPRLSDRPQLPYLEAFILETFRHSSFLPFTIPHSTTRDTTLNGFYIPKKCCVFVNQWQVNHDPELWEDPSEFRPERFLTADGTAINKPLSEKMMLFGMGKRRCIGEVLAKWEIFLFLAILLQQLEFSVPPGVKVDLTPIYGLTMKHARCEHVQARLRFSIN
Method: (§1) The mixed probe substrate consisted of testosterone 0.01 mM for CYP3A4, phenacetin 0.02 mM for CYP1A2, chlorzoxazone 0.02 mM for CYP2E1, and omeprazole 0.01 mM for CYP2C19, respectively. […] Other procedure was accorded to above step of 2.6 “Microsomal incubation conditions”.

CYP3A4 [2] = target: T2, CYP3A4 (Homo sapiens, UniProt P08684); experiment: Degradation in single recombinant CYP3A4; format: in vitro ADME; parameters: purchased RILD (Research Institute for Liver Diseases Co., Ltd., Shanghai, China); details: 5 μM compound, single enzyme CYP3A4; for speed constant k in CYP3A4: t in min; for half-life at 5 μM: human, recombinant CYP3A4, pH 7.4, read-out: t1/2 in CYP3A4
Target sequence in this assay (P08684 whole entry): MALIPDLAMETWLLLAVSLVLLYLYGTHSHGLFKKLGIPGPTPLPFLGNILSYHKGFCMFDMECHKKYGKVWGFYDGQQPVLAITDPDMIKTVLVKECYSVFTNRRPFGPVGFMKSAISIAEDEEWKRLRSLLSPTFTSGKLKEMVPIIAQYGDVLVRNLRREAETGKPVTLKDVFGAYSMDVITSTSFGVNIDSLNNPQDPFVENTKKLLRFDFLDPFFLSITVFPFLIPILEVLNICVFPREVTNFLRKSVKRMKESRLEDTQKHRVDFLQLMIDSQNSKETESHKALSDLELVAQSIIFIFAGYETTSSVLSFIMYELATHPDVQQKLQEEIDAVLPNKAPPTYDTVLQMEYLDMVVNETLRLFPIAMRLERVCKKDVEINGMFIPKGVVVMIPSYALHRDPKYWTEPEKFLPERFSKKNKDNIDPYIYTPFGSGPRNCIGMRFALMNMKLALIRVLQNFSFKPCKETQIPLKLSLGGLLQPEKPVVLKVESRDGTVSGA

CYP2E1 [3] = target: T3, CYP2E1 (Homo sapiens, UniProt P05181); details: recombinant enzyme, 5 μM, pH 7.4
CYP2C19 [4] = target: T4, CYP2C19 (Homo sapiens, UniProt P33261); experiment: in vitro; details: recombinant enzyme, pH 7.4
CYP2E1 [5] = target: T3, CYP2E1; experiment: in vitro; details: recombinant enzyme, pH 7.4
in vitro [6] = details: male, Sprague-Dawley, rat, microsomes, pH 7.4
CYP2C19 [7] = target: T4, CYP2C19; details: recombinant enzyme, 5 μM, pH 7.4
CYP2E1 [8] = target: T3, CYP2E1; experiment: biochemical
Method: as §1

CYP2C19 [9] = target: T4, CYP2C19; experiment: biochemical
Method: as §1

CYP3A4 [10] = target: T2, CYP3A4; experiment: in vitro; details: pH 7.4, probe testosterone 0.01 mM
Target sequence in this assay (P08684 2-503): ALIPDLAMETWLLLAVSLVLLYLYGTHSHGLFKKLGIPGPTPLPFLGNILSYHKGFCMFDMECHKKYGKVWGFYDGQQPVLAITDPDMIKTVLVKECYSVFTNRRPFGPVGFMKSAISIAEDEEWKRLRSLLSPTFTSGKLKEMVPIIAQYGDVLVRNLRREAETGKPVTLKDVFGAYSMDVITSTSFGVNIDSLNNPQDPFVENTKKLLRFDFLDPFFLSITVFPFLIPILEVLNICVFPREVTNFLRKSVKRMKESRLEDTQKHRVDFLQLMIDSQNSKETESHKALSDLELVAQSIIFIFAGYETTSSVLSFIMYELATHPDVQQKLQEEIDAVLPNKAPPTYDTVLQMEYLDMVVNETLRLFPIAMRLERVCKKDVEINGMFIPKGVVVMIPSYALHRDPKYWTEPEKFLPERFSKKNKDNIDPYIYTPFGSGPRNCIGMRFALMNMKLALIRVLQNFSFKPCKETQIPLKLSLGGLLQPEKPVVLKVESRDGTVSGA

CYP1A2 [11] = target: T5, CYP1A2 (Homo sapiens, UniProt P05177); experiment: Degradation in single recombinant CYP1A2; format: in vitro ADME; details: 5 μM compound, single enzyme CYP1A2; for speed constant k in CYP1A2: t in min; for half-life at 5 μM: human, recombinant CYP1A2, pH 7.4, read-out: t1/2 in CYP1A2
T5 construct: purchased RILD (Research Institute for Liver Diseases Co., Ltd., Shanghai, China)
T5 sequence (P05177 whole entry): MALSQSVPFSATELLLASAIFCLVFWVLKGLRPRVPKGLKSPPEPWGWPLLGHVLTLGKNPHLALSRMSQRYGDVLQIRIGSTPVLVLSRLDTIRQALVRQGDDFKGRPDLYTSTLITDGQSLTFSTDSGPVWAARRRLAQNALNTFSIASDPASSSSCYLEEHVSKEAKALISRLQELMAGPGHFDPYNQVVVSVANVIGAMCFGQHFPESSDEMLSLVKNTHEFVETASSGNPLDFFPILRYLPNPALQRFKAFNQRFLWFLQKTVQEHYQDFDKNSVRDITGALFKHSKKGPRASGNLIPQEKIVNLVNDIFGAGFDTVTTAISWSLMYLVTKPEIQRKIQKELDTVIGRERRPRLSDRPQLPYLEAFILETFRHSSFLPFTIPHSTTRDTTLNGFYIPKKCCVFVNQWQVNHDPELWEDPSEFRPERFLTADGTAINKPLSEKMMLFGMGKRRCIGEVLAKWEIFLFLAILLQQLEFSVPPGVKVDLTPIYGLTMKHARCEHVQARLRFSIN

CYP1A2 [12] = target: T6, CYP1A2 (Rattus norvegicus, UniProt P04799); details: in vivo
T6 sequence (P04799 1-513): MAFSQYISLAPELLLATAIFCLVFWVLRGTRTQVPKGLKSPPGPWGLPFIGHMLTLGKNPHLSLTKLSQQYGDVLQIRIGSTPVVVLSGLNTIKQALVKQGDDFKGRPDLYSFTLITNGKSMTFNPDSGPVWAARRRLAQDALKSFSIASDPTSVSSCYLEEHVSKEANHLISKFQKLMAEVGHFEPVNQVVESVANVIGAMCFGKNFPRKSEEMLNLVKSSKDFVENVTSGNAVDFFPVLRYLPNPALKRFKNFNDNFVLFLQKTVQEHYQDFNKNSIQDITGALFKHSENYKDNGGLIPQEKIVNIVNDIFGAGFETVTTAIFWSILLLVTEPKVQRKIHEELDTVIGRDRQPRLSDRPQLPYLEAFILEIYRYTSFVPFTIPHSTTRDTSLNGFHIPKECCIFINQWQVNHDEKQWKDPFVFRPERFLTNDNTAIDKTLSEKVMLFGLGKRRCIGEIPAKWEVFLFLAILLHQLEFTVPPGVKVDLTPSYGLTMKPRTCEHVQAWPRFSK

in vitro [13] = details: human, microsomes, pH 7.4
CYP3A4 [14] = details: rat, in vivo
in vitro [15] = details: for CLint: microsomes
Description: Km is defined as the characteristic constant of the enzyme, which represent the […] (Vmax). The values of Vmax and Km are based on the nonlinear regression analysis of the Michaelis-Menten equation, V = Vmax × S/(Km + S). The kinetic parameters were adopted through the following parameters: S, Vmax, and V. All of these parameters represented the substrate concentration, the maximum velocity of metabolism, and the velocity of metabolism, respectively. CLint (the different ability of the organism in eliminating the particular chemical substances) is defined as Vmax/Km, which reflected the different ability of the organism in eliminating the particular chemical substances.

CYP2C19 [16] = details: rat liver after 7-days i.g. treatment, low-, medium- and high-dose groups
Method: To investigate the molecular mechanisms in the activity of the CYP enzymes, the level of CYP protein in the liver of rats was examined.
In this study, the grouping and administration methods were as described in the step of “Pharmacokinetic study of the probe substrate in vivo”. On the 8th day, the blood was allowed to drain through the aorta and the liver was excised quickly, […]. The liver tissue was stored at −80 °C until analysis.
Then, a piece of the liver tissue was separately homogenized and lysed in RIPA buffer with 1% proteinase inhibitor phenylmethylsulfonyl fluoride (PMSF). […] The protein levels were quantified by a BCA Assay Kit. The samples were boiled at 100 °C for 10 min. Equal amounts of protein lysates were separated on 10% SDS-polyacrylamide gels by electrophoresis and then transferred onto nitrocellulose membranes. The membranes were blocked in 5% non-fat milk. […] In addition, images were captured using an Odyssey Infra-red Imaging System v3.0.16 (LI-COR Biosciences, Lincoln, NE, USA), and quantified by densitometry scanning using ImageJ Analysis software (National Institutes of Health, Bethesda, MD, USA).

T4 sequence (P33261 whole entry): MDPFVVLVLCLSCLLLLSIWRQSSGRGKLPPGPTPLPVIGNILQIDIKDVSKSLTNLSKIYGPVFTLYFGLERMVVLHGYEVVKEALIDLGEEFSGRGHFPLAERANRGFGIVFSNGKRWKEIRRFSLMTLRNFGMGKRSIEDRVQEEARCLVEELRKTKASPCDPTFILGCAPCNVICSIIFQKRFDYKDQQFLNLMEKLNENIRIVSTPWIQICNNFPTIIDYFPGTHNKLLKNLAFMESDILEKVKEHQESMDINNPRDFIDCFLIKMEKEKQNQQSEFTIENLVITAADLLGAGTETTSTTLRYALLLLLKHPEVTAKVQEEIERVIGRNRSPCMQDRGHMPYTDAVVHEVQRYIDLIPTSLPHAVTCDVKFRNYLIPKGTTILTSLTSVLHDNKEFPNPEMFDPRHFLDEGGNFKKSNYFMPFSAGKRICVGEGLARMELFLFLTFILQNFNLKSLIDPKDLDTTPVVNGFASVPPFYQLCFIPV
T3 sequence (P05181 whole entry): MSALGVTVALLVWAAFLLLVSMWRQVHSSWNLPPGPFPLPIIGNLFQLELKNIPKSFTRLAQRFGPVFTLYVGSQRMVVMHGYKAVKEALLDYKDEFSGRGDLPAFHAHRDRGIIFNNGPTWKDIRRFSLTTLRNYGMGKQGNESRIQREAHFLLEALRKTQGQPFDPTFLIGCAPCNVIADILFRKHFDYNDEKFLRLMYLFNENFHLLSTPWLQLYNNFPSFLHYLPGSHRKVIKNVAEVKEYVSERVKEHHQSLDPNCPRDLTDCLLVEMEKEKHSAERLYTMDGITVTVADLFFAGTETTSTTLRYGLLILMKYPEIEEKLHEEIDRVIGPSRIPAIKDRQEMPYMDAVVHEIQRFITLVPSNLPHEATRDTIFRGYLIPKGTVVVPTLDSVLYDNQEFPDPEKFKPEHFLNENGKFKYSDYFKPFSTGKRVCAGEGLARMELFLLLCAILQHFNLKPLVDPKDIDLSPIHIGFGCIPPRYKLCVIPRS

Row | SMILES | IC50 (CYP1A2 [1]) [µM] | speed constant k in CYP3A4 (CYP3A4 [2]) | half-life at 5 μM (CYP3A4 [2]) [h] | speed constant k in CYP2E1 (CYP2E1 [3]) | half-life at 5 μM (CYP2C19 [4]) [h] | half-life at 5 μM (CYP2E1 [5]) [h] | half-life (in vitro [6]) [h] | speed constant k in CYP2C19 (CYP2C19 [7]) | IC50 (CYP2E1 [8]) [µM] | IC50 (CYP2C19 [9]) [µM] | IC50 at 120 min (CYP3A4 [10]) [µM] | speed constant k in CYP1A2 (CYP1A2 [11]) | half-life at 5 μM (CYP1A2 [11]) [h] | metabolic rate of phenacetin with increasing dose of compound (CYP1A2 [12]) | half-life (in vitro [13]) [h] | metabolic rate of midazolam with increasing dose of compound (CYP3A4 [14]) | Km at 15 min (in vitro [15]; Sprague-Dawley, rat, pH 7.4) [µM] | Km at 15 min (in vitro [15]; human) [µM] | CLint (in vitro [15]; human) | CLint (in vitro [15]; rat) | other results
1 | CC(C)=C1C/C=C(\C)CC/C=C(\C)CC1=O [germacrone] | 78.1 | 0.019 ± 0.0064 | 0.608 | 0.01 ± 0.0017 | 0.963 | 1.16 | 0.3 | 0.012 ± 0.0032 | > 80 | 17.8 | 3.57 | 0.008 ± 0.001 | 1.44 | increased | 0.273 | increased | 49.6 ± 11.1 | 44.8 ± 5.47 | 0.3298 mL/min/(mg of Protein) | 0.2763 mL/min/(mg of Protein) | 
2 | COc1cc(/C=C/C(=O)CC(=O)/C=C/c2ccc(O)c(OC)c2)ccc1O [curcumin] | > 80 | 0.018 ± 0.0035 | 0.642 | 0.01 ± 0.0024 | 1.05 | 1.16 | 0.372 | 0.011 ± 0.0017 | > 80 | 11.9 | 24.3 | 0.0023 ± 0.0006 | 5.02 | decreased | 2.89 | decreased | 48.5 ± 8.27 | 16.6 ± 4.3 | 0.2435 mL/min/(mg of Protein) | 0.3226 mL/min/(mg of Protein) | protein level of CYP2C19 vs control in vivo (CYP2C19 [16]): decreased

Source: PMC9317718 (Molecules, 2022)
